From patent US10577362B2, “Substituted 2, 4-diamino-quinoline derivatives for use in the treatment of proliferative diseases” (GENOSCIENCE PHARMA, priority 2016, dated 2020)

Key:
[1] = system: 786-O (renal adenocarcinoma) cell line; assay: CellTiter-Glo luminescent cell viability assay, 786-O; format: cell-based, human; conditions: Homo sapiens, 786-0; for EC50: 786-O cell line, 72 h incubation, CellTiter-Glo, read-out: EC50, growth inhibition of 786-O; for viability at 4 µM / viability at 10 µM: 786-O, 72 h; for viability at 4 µM: compound at 4 μM; for viability at 10 µM: compound at 10 μM
In short: (§1)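 72 h compound exposure, 37 °C, 5% CO2, 10% FBS medium; ATP luminescence read after 30 min RT equilibration. Viability as % of H2O/DMSO diluent control; EC50 = dose giving 50% of control signal. Duplicate points minimum.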

[2] = system: MOLM-14 (acute myeloid leukemia) cell line; assay: CellTiter-Glo luminescent cell viability assay, MOLM-14; format: cell-based, human; conditions: Homo sapiens; for viability at 4 µM: MOLM-14, compound at 4 μM; for viability at 4 µM / viability at 10 µM: 72 h; for viability at 10 µM: MOLM-14, compound at 10 μM; for EC50: MOLM-14 cell line, 72 h incubation, CellTiter-Glo, read-out: EC50, growth inhibition of MOLM-14
In short: (§2)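 Cells were cultured at 37 °C, 5% CO2 with 10% FBS; adherent lines were plated overnight, suspension MOLM-14 plated 1 h before dosing. Compounds in H2O or DMSO were added at various concentrations for 72 h, and viability was read by luminescence. EC50 is the dose reducing signal to 50% of diluent control.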

[3] = system: Huh7 (hepatocellular carcinoma) cell line; assay: CellTiter-Glo luminescent cell viability assay, Huh7; format: cell-based, human; conditions: Homo sapiens, Huh-7; for viability at 4 µM: Huh7, compound at 4 μM; for viability at 4 µM / viability at 10 µM: 72 h; for viability at 10 µM: Huh7, compound at 10 μM; for EC50: Huh7 cell line, 72 h incubation, CellTiter-Glo, read-out: EC50, growth inhibition of Huh7
In short: as §2

[4] = system: A375 (malignant melanoma) cell line; assay: CellTiter-Glo luminescent cell viability assay, A375; format: cell-based, human; conditions: Homo sapiens, A-375; for viability at 4 µM: A375, compound at 4 μM; for viability at 4 µM / viability at 10 µM: 72 h; for viability at 10 µM: A375, compound at 10 μM; for EC50: A375 cell line, 72 h incubation, CellTiter-Glo, read-out: EC50, growth inhibition of A375
In short: as §1

[5] = system: HCT-116 (colorectal carcinoma) cell line; assay: CellTiter-Glo luminescent cell viability assay, HCT-116; format: cell-based, human; conditions: Homo sapiens; for viability at 4 µM: HCT-116, compound at 4 μM; for viability at 4 µM / viability at 10 µM: 72 h; for viability at 10 µM: HCT-116, compound at 10 μM; for EC50: HCT-116 cell line, 72 h incubation, CellTiter-Glo, read-out: EC50, growth inhibition of HCT-116
In short: as §1

[6] = system: PANC-1 (prancreatic carcinoma) cell line; assay: CellTiter-Glo luminescent cell viability assay, PANC-1; format: cell-based; conditions: Homo sapiens; for viability at 4 µM: PANC-1, 4 μM; for viability at 4 µM / viability at 10 µM: 72 h, % of signal of diluent-treated cultures; for viability at 10 µM: PANC-1, 10 μM; for EC50: PANC-1 cell line, 72 h incubation, CellTiter-Glo, read-out: EC50 (growth inhibition assay of PANC-1 cell line)
Method: All cell lines were maintained in medium containing 1% penicillin-streptomycin (Dutscher, P06-07100) and 10% Fetal Bovine Serum (Hyclone Dutscher, RZK35922) cultured at 37° C. with 5% CO2. HepG2 (hepatocellular carcinoma), cell line was cultured in Dulbecco's modified Eagle's medium low glucose (Gibco, 21885025), Huh7 (hepatocellular carcinoma), HCT-116 (colorectal carcinoma), PANC-1 (prancreatic carcinoma) and A375 (malignant melanoma) cell lines were cultured in Dulbecco's modified Eagle's medium (Dutscher, L0103). MOLM-14 (acute myeloid leukemia) cell line was maintained in MEM alpha medium (Gibco, 22561-021). 786-0 (renal adenocarcinoma) cell lines were maintained in RPMI 1640 medium (Dutscher, L0498).
Cell viability was measured using the CellTiter-Glo® luminescent cell viability assay as described by the manufacturer (Promega, Ref G7571) using an Infinite F200Pro luminometer (Tecan). Briefly, for adherent cells, cells were plated onto 96-well plates (white with clear bottom) in 90 μL of media per well and were allowed to grow overnight before the assay. For cells growing in suspension, cells were plated onto 96-well plates 1 h before the assay.
Compounds were resuspended in H2O or DMSO and added at different concentrations to each well, and cell cultures were incubated for 72 h. Each diluent (H2O or DMSO) were used as a control, and all compounds were tested in a constant percentage of H2O or DMSO. On the day of the reading, plates are equilibrated 30 min at room temperature before the addition of 100 μL of CellTiter-Glo® and luminescence was measured using an Infinite F200Pro (Tecan). % cell viability were expressed as a percentage of the signal obtained for cell cultures treated with diluent. EC50 values were determined as the dose of compound required to reduce luminescent values to 50% of the signal obtained for cell cultures treated with diluent. The experimental data were analyzed using a computer program, Graphpad Prism v5 (GraphPad Software, Inc. La Jolla, Calif.). All points were at least done in duplicate.

[7] = system: HepG2 (hepatocellular carcinoma) cell line; assay: CellTiter-Glo luminescent cell viability assay, HepG2; format: cell-based, human; conditions: Homo sapiens; for viability at 4 µM / viability at 10 µM: HepG2, HepG, 72 h; for viability at 4 µM: compound at 4 μM; for viability at 10 µM: compound at 10 μM; for EC50: HepG2 cell line, 72 h incubation, CellTiter-Glo, read-out: EC50, growth inhibition of HepG2
In short: as §2

Structure (SMILES): Cc1ccc2c(N3CCC(NC(C)(C)C)CC3)c(C#N)c(NCc3ccc(Cl)cc3)nc2c1 [Compound 416CN, 2-(4-chlorobenzylamino)-3-cyano-4-[4-(tert-butylamino)piperidin-1-yl]-7-methylquinoline]
- EC50 [1]: 0.5 to 5 µM
- viability at 4 µM [1]: 0.4%
- viability at 10 µM [1]: 0.3%
- viability at 4 µM [2]: 37.9%
- viability at 10 µM [2]: 0.4%
- EC50 [2]: 0.5 to 5 µM
- viability at 4 µM [3]: 75.5%
- viability at 10 µM [3]: 0.6%
- EC50 [3]: 0.5 to 5 µM
- viability at 4 µM [4]: 0.4%
- viability at 10 µM [4]: 0.4%
- EC50 [4]: 0.5 to 5 µM
- viability at 4 µM [5]: 0.3%
- viability at 10 µM [5]: 0.3%
- EC50 [5]: 0.5 to 5 µM
- viability at 4 µM [6]: 100%
- viability at 10 µM [6]: 0.7%
- EC50 [6]: 5 to 10 µM
- viability at 4 µM [7]: 61.9%
- viability at 10 µM [7]: 0.5%
- EC50 [7]: 0.5 to 5 µM

Structure (SMILES): CC(C)(C)NC1CCN(c2c(C#N)c(NCc3ccc4c(c3)OCO4)nc3ccccc23)CC1 [Compound 3300CN, 2-[(benzo[d][1,3]dioxol-5-ylmethyl)amino]-3-cyano-4-[4-(tert-butylamino)piperidin-1-yl]quinoline]
- EC50 [1]: 5 to 10 µM
- viability at 4 µM [1]: 60%
- viability at 10 µM [1]: 0.8%
- viability at 4 µM [2]: 70.2%
- viability at 10 µM [2]: 0.5%
- EC50 [2]: 5 to 10 µM
- viability at 4 µM [3]: 63.2%
- viability at 10 µM [3]: 0.5%
- EC50 [3]: 5 to 10 µM
- viability at 4 µM [4]: 47.2%
- viability at 10 µM [4]: 0.4%
- EC50 [4]: 0.5 to 5 µM
- viability at 4 µM [5]: 13.9%
- viability at 10 µM [5]: 0.2%
- EC50 [5]: 0.5 to 5 µM
- viability at 4 µM [6]: 78%
- viability at 10 µM [6]: 27.4%
- EC50 [6]: 5 to 10 µM
- viability at 4 µM [7]: 62.7%
- viability at 10 µM [7]: 0.5%
- EC50 [7]: 5 to 10 µM

Structure (SMILES): CN1CCN(C2CCCN(c3c(C#N)c(NCc4ccc(Cl)cc4)nc4ccccc34)C2)CC1 (stereo not drawn) [Compound 3168CN, 2-(4-chlorobenzylamino)-3-cyano-4-[3-(4-methylpiperazin-1-yl)piperidin-1-yl]quinoline]
- EC50 [1]: 0.5 to 5 µM
- viability at 4 µM [1]: 75.4%
- viability at 10 µM [1]: 0.6%
- viability at 4 µM [2]: 105%
- viability at 10 µM [2]: 0.8%
- EC50 [2]: 5 to 10 µM
- viability at 4 µM [3]: 80.1%
- viability at 10 µM [3]: 0.7%
- EC50 [3]: 0.5 to 5 µM
- viability at 4 µM [4]: 61%
- viability at 10 µM [4]: 0.8%
- EC50 [4]: 0.5 to 5 µM
- viability at 4 µM [5]: 40.7%
- viability at 10 µM [5]: 0.5%
- EC50 [5]: 0.5 to 5 µM
- viability at 4 µM [6]: 100%
- viability at 10 µM [6]: 22.3%
- EC50 [6]: 5 to 10 µM
- viability at 4 µM [7]: 87.8%
- viability at 10 µM [7]: 0.6%
- EC50 [7]: 5 to 10 µM

Structure (SMILES): COc1ccc(Nc2nc3ccccc3c(N3CCC(NC(C)(C)C)CC3)c2C#N)cc1 [Compound 3252CN, 2-(4-methoxyphenylamino)-3-cyano-4-[4-(tert-butylamino)piperidin-1-yl]quinoline]
- EC50 [1]: 0.5 to 5 µM
- viability at 4 µM [1]: 74.2%
- viability at 10 µM [1]: 0.3%
- viability at 4 µM [2]: 80.2%
- viability at 10 µM [2]: 0.7%
- EC50 [2]: 5 to 10 µM
- viability at 4 µM [3]: 80.6%
- viability at 10 µM [3]: 2.9%
- EC50 [3]: 5 to 10 µM
- viability at 4 µM [4]: 20%
- viability at 10 µM [4]: 0.2%
- EC50 [4]: 0.5 to 5 µM
- viability at 4 µM [5]: 2.5%
- viability at 10 µM [5]: 0.2%
- EC50 [5]: 0.5 to 5 µM
- viability at 4 µM [6]: 94.7%
- viability at 10 µM [6]: 47.9%
- EC50 [6]: 5 to 10 µM
- viability at 4 µM [7]: 68.4%
- viability at 10 µM [7]: 0.3%
- EC50 [7]: 5 to 10 µM
